From patent US20200316096A1, “COMBINATION OF DIET AND DRUG THERAPY FOR TREATING CANCER” (Trustees of Boston College, priority 2019, published 2020)

Tested on: Iba-1
Assay: Iba-1 expression in VM-M3 brain tumour tissue (immunohistochemistry, western blot)
Assay type: in vivo, mouse (VM/Dk)
Conditions: DON treated brain tumour tissue; immunohistochemistry and western blot
Procedure: FIGS. 6A-6C. Restricted Ketogenic diet with DON reduces the Iba-1 expression in the VM-M3 brain tumour tissue. Immunohistochemistry (IHC) of Iba-1 was performed in formalin fixed brain tissues as described in Methods. […] Western blot analysis of Iba-1 protein expression in the tumours indicates a decrease in the expression of Iba-1 in the DON treated tumours (n=3 mouse tumour brain tissue) in comparison to SD-UR (n=3 mouse tumour brain tissue). A decrease in expression was also seen for KD-R mice (n=2 mouse tumour brain tissue). Normal brain (NB) was used as a negative control tissue, FIGS. 6B and 6C.
Iba-1 protein expression was analyzed in the VM-M3 brain tumour tissue by immunohistochemistry and western blot. Iba-1 was heavily expressed in VM-M3 tumour and normal microglia/macrophages, as we described previously^37. The KD-R reduced the expression of Iba-1 as shown in both immunohistochemistry and western blot (FIGS. 6A and 6B). […]
Approximately 100 μg of total protein from each tissue sample was denatured with SDS-PAGE sample buffer [63 mmol/L Tris-HCl (pH 6.8), 10% glycerol, 2% SDS, 0.0025% bromphenol blue, and 5% 2-mercaptoethanol] and was resolved by SDS-PAGE on 4% to 12% Bis-Tris gels (Invitrogen). […] Each membrane was stripped and reprobed for β-actin as an internal loading control and the ratio of the Iba-1 to β-actin was analyzed by scanning densitometry (FluorChem 8900 Software).

## [N-]=[N+]=CC(=O)CC[C@H](N)C(=O)O [DON, 6-diazo-5-oxo-L-norleucine]
  Iba-1 expression: significant reduction
